# Literature values as cited in patent publication EP1156371A2, “Replenishing method of planographic printing plate developer” (FUJI PHOTO FILM CO., LTD., priority 2000, dated 2001).
# Details: dissociation constant of weak acid, aqueous solution
row,Compound,pKa
1,"CC(P(=O)(O)O)P(=O)(O)O [1,1-ethylidene diphosphonic acid]",11.54
2,"Oc1ccc(O)c(O)c1 [1,2,4-trihydroxybenzene]",11.82
3,CC(O)(P(=O)(O)O)P(=O)(O)O [1-hydroxy 1-ethylidene diphosphonate],11.52
4,"OCC(F)(F)C(F)F [2,2,3,3-tetrafluoropropanol-1]",12.74
5,CCC(C)=NO [2-butanone oxime],12.45
6,ON=Cc1ccccc1O [2-hydroxybenzaldehyde oxime],12.10
7,"O=C(O)c1ccc(O)c(O)c1 [3,4-duhydroxybenzoic acid]",11.94
8,O=C(O)c1cc2ccccc2cc1O [3-hydroxy-2-naphthoic acid],12.84
9,CC(=NO)c1ccccc1 [acetophenone oxime],11.35
10,CC(C)=NO [acetoxime],12.42
11,Nc1ncnc2c1ncn2[C@@H]1O[C@H](CO)[C@@H](O)[C@H]1O [adenosine],12.56
12,O=C1CC(=O)NC(=O)N1 [barbituric acid],12.5
13,c1ccc2[nH]cnc2c1 [benzimidazole],12.86
14,Oc1ccccc1O [catechol],12.6
15,CC(=NO)C(C)=NO [dimethyl glyoxime],11.9
16,NC(=N\O)/C(N)=N/O [ethanediamide dioxime],11.37
17,Oc1ccc(O)cc1 [hydroquinone],11.56
18,OC[C@H]1O[C@@H](n2cnc3c(O)ncnc32)[C@H](O)[C@@H]1O [inosine],12.5
19,CC(C)(P(=O)(O)O)P(=O)(O)O [isopropylidene diphopshonic acid],12.10
20,Cc1cccc(O)c1 [m-cresol],10.09
21,Cc1ccccc1O [o-cresol],10.33
22,O=Cc1ccccn1 [pyridine-2-aldehyde],12.68
23,O=Cc1ccncc1 [pyridine-4-aldehyde],12.05
24,Oc1cccc(O)c1O [pyrogallol],11.34
25,Oc1cccc(O)c1 [resorcinol],11.27
26,O=C(O)c1cc(S(=O)(=O)O)ccc1O [sulfosalicylic acid],11.7
27,NC(=S)c1ccccc1 [thiobenzamide],12.8
28,picoline thioamide,12.55
